{"source": "patent US9387221B2", "about": "“SDF-1 binding nucleic acids and the use thereof in cancer treatment” (NOXXON Pharma AG, priority 2010, dated 2016)", "tested_on": "biotinylated human D-SDF-1", "experiment": "Competitive pull-down binding assay", "conditions": "for binding affinity in competitive pull-down binding assay vs. 192-A10-001: aptamer level, reference 192-A10-001; for binding affinity of derivatives of 193-G2-001 and 193-C2-001 in competitive pull-down binding assay: vs. 193-G2-001 and 193-G2-012; for binding affinity of derivatives of 192-A10-001 in competitive pull-down binding assay: vs. 192-A10-001 and 192-A10-008", "protocol": "In order to compare different D-SDF-1 binding aptamers, a competitive ranking assay was performed. For this purpose the most affine aptamer available was radioactively labeled (see above) and served as reference. […] An excess of de- and renatured non-labeled D-RNA aptamer variants was added to different concentrations (e.g. 2, 10, and 50 nM) with the labeled reference aptamer to parallel binding reactions. The aptamers to be tested competed with the reference aptamer for target binding, thus decreasing the binding signal in dependence of their binding characteristics."}
{"substance": "GUGCUGCCGGGGUUAGGGCUAA-AGUCGGCCGACAGCAC (GUGCUGCCGGGGUUAGGGCUAAAGUCGGCCGACAGCAC; chemistry not given here) [197-D1]", "values": [{"measurement": "binding affinity in competitive pull-down binding assay vs. 192-A10-001", "value": "Much weaker binding affinity"}]}
{"substance": "GUGCUGCGGGGGUUAGGGCUCAAAGUCGGCCUGCAGCAC (chemistry not given here) [197-H2]", "values": [{"measurement": "binding affinity in competitive pull-down binding assay vs. 192-A10-001", "value": "Much weaker binding affinity"}]}
{"substance": "GUGCUGCGGGGGUUAGGGCUCGAAGUCGGCCCGCAGCAC (chemistry not given here) [197-H3]", "values": [{"measurement": "binding affinity in competitive pull-down binding assay vs. 192-A10-001", "value": "weaker binding affinities"}]}
{"substance": "GUGCUGUGGGGGUCAGGGCUAGAAGUCGGCCUGCAGCAC (chemistry not given here) [197-D2]", "values": [{"measurement": "binding affinity in competitive pull-down binding assay vs. 192-A10-001", "value": "Much weaker binding affinity"}]}
{"substance": "GUGGUGUGAUCUAGAUGUAGUGGCUGAUCCUAGUCAGGUAC (chemistry not fully specified) [193-C2-004]", "values": [{"measurement": "binding affinity of derivatives of 193-G2-001 and 193-C2-001 in competitive pull-down binding assay", "value": "reduced binding affinity"}]}
{"substance": "GUGGUGUGAUCUAGAUGUAGUGGCUGUUCCUAGUCAGGUAUGC (chemistry not fully specified) [193-E3-002]", "values": [{"measurement": "binding to human SDF-1 in comparison to 193-G2-001", "setting": "reference 193-G2-001", "value": "reduced binding"}]}
{"substance": "GUGUGAUCUAGAUGUAGUGGCUGAUCCUAGUCAGG (Listed both as L-RNA Spiegelmer and D-RNA aptamer, further chemistry not given here) [193-C2-007]", "values": [{"measurement": "binding affinity of derivatives of 193-G2-001 and 193-C2-001 in competitive pull-down binding assay", "value": "reduced binding affinity"}]}
{"substance": "GUGUUCCCGGGGUUAGGGCUUGAAGUCGGCCGGCAGCAC (aptamer; chemistry not fully specified) [197-B1]", "values": [{"measurement": "binding affinity in competitive pull-down binding assay vs. 192-A10-001", "value": "Much weaker binding affinity"}]}
{"substance": "GUGUUGCAGGGGUUAGGGCUUGAAGUCGGCCUGCAGCAC (chemistry not given here) [197-E3]", "values": [{"measurement": "binding affinity in competitive pull-down binding assay vs. 192-A10-001", "value": "weaker binding affinities"}]}
{"substance": "GUGUUGCGGAGGUUAGGGCUAGAAGUCGGUCAGCAGCAC (chemistry not given here) [197-H1]", "values": [{"measurement": "binding affinity in competitive pull-down binding assay vs. 192-A10-001", "value": "weaker binding affinities"}]}
{"substance": "UGAAAGCAACAUGUCAAUGAAAGGUAGCCG (chemistry not fully specified) [192-A10-005]", "values": [{"measurement": "binding affinity of derivatives of 192-A10-001 in competitive pull-down binding assay", "value": "reduced binding affinity"}]}
{"substance": "UGAGAUAGGGGUUAGGGCUUAAAGUCGGCUGAUUCUCA (aptamer; Made as D-RNA aptamer and L-RNA Spiegelmer, tested form not given here, further chemistry not given here) [190-A3-003]", "values": [{"measurement": "binding affinity of derivatives of 190-A3-001", "setting": "compared with 190-A3-001", "value": "does not have an influence on the binding affinity"}]}
{"substance": "UGGUGUGAUCUAGAUGUAGUGGCUGAUCCUAGUCAGGUA (Made as D-RNA aptamer and L-RNA Spiegelmer, tested form not given here, further chemistry not given here) [193-C2-005]", "values": [{"measurement": "binding affinity of derivatives of 193-G2-001 and 193-C2-001 in competitive pull-down binding assay", "value": "reduced binding affinity"}]}
{"substance": "UGUGAAAGCAACAUGUCAAUGAAAGGUAGCCGCA (aptamer; chemistry not given here) [192-A10-003]", "values": [{"measurement": "binding affinity of derivatives of 192-A10-001 in competitive pull-down binding assay", "value": "reduced binding affinity"}]}
